The subject of one data set is CVF paw edema. The data set is described as follows: rat paw edema induced by cobra venom factor (CVF). The format is in vivo. Conditions: for ED30: Rattus norvegicus, po, 3 h, read-out: ED30 CVF edema; for Inhibition effect (%): rat, after three hours, vs control group. On the procedure: 2. As a further experiment for testing the antiphlogistic effectiveness there was used rat paw edema induced by means of cobra venom factor (CVF). Since CVF produces inflammation by way of activation of the complementary system, inhibiting substances could open up a new kind of working principle for application in inflammatory illnesses.
Edema was provoked by subplantar injection of CVF (10 units in 1 ml NaCl solution 0.9%) in an amount of 0.1 ml of solution per paw, into one hind paw of each of a number of rats weighing from 120-160 g. After administration of the test substance in a volume of 10 ml/kg body weight the volume of the paw was determined in an overflow device. After three hours the final value was determined. For each dose the test was carried out with five test and five control animals of one sex, and repeated with the same number of animals of the opposite sex. The result was expressed as percentage inhibition of the edema compared with the control group.

Data set [1] has as its system adjuvant arthritis. The data set is described as follows: adjuvant arthritis test of Pearson, prophylactic application. To be noted: for ED50: Rattus norvegicus, po, 408 h, read-out: ED50 Adjuvant arthritis prophyl.; for antiphlogistic activity (in words): appraisal from ED50 values in the arthritis test; for inhibition values (%): prophylactic. The format is in vivo, Wistar rats. The protocol:
3. The adjuvant arthritis test of C. M. Pearson, Proc. Soc. Exp. Biol. 91, 95-101 (1956) was carried out as a further relevant animal experiment for the examination of anti-rheumatic substances.
(§1) Ten Wistar rats weighing from 120-150 g were used for each dose. The same number of animals served as a control. Arthritis was induced with 0.5 ml Freud's adjuvant, by subplantar injection. The test lasted 17 days. At the beginning of the test the paw volume of the non-injected hind paw was determined and this was used as a starting value. Further volume measurements were carried out on the 14th and 17th days of the test. For the result the difference between the starting and finishing volumes of the paw, both of the test group and of the control group, was obtained and the inhibition expressed as a percentage. With daily administration from the time of induction of arthritis onwards (prophylactic application) the following inhibition values (%) were obtained: […]

A further data set concerns stomach mucosa. The data set is described as follows: induction of stomach ulcers (acute stomach mucous tolerability). Format: in vivo, Wistar rats. Conditions: for Threshold dose Acute stomach mucous tolerability: p.o.; for Effect (ulcer induction): single administration, after 3.5 hours. The source says: The most frequent side effect in known anti-rheumatics is poor gastrointestinal tolerance with ulcer induction. For this reason β-elemonic acid was examined for the induction of ulcers. The determination of ulcer formation was made according to W. J. R. Whittle, Brit. J. Pharmacology, 1975, Vol. 55, pp. 242-243; L. Mariani, Europ. J. Toxicol. Eviron., 1975, Vol. 8, pp. 335-39; and R. Menguy and L. Desbaillets, Proc. Soc. Bio., Vol. 125, p. 1108. In the tests, for each dose and control ten male Wistar rats (120-150 g, kept fasting for 16 hours) were used. The provocation of bleeding stomach ulcer took place by oral application of the active ingredient. The animals were sacrificed after 3.5 hours, the stomach removed, opened along the larger curvature and stretched on a foam polystyrene plate. The median ulcer factor of the test group and the control group was determined.

Data set [2] in a line: acute peroral toxicity in the mouse. To be noted: in vivo. The protocol:
Determination of toxicity of β-elemonic acid was carried out on the mouse and the rat. Acute peroral toxicity in the mouse: 4.640 mg/kg.

Data set [3] in a line: therapeutic range (therapeutic indices). Format: in vivo. Conditions: for selectivity ratio: in vivo, po. The source says: An assessment of the effectiveness of elemonic acid was compared with known substances. A quantitative assessment of β-elemonic acid in comparison with known antiphlogistic substances was made possible by determining the therapeutic ranges, i.e. by the safety with which an active ingredient can be used. […] The therapeutic range is given (1) by the ratio between the LD50 and the ED30 in the CVF paw oedema and (2) by the ratio between the dose threshold value of stomach intolerance and the ED50 in the arthritis model. The ED30 and the ED50 values were determined with the aid of a regression line: […]

The next data set concerns young rats. As to the kind of experiment: comparative side-effect investigation with prednisolone on young rats, 8 days. The format is in vivo, rat. Also on record: key: 0: no effect; (-): weak inhibition; -: definite inhibition; ---: very strong inhibition. On the procedure: β-Elemonic acid was compared with prednisolone for determining side-effects. Known antiphlogistic substances can cause undesired side-effects, some of which arise even at therapeutic doses. For this reason a comparative investigation of β-elemonic acid with prednisolone was undertaken (H. J. Lee, M. R. I. Soliman in Science 215 989-991, 1982). Carried out on young rats, the duration of application was 8 days. β-Elemonic acid was administered orally up to a dosage of 316 mg/kg body weight, and prednisolone intramuscularly up to a dosage of 5 mg/kg body weight.

A further data set has as its system carrageenin paw edema. As to the kind of experiment: carrageenin rat paw edema test of Hillebrecht (antiphlogistic effectiveness). The format is in vivo. To be noted: for Inhibiting effect (%): rat, after three hours, vs control group. On the procedure: 1. The antiphlogistic effectiveness was determined by the rat paw edema test of Hillebrecht (J. Hillebrecht, Arzneim, Forsch. 1954, Vol. 4, p. 607). In this test, rats weighing from 120 g-160 g were given a subplantar dose of carrageenin (0.5% in 0.9% NaCl solution) in an amount of 0.1 ml of solution per paw, using one hind paw of each rat, to produce edema. After administration of the test substance, which as a rule should not exceed a volume of 10 ml/kg body weight, the volume of the paw was determined in an overflow device. After three hours the final value was determined. For each dosage level the experiment was performed with five test and five control animals of one sex and repeated with the same number of animals of the opposite sex. The result is expressed as the percentage inhibition of edema as compared with the control group.

Data set [4] deals with adjuvant arthritis. The data set is described as follows: adjuvant arthritis test, therapeutic application beginning ten days after induction. The format is in vivo, Wistar rats. To be noted: for inhibition values (%): therapeutic.
The test system of the next data set is rats. The data set is described as follows: dose-range study on rats, daily application for 14 days. Format: in vivo, rat. To be noted: daily for 14 days, 681.0 and 1,000.0 mg/kg body weight.
The test system of another data set is adrenal gland. The data set is described as follows: adrenal gland weights at termination of the adjuvant arthritis (17-day administration). The format is in vivo, Wistar rats. Conditions: 17-day prophylactic administration. On the procedure:
as §1

Setting [5] is: po, Table 9, read-out: LD50 Mouse.
The mark [6] stands for this setting: LD50 / ED30 in the CVF paw oedema, read-out: Therapeutic index 1 (3./1.).
Setting [7] is: rat, dose threshold value of stomach intolerance / ED50 in the arthritis model, read-out: Therapeutic index 2 (4./1.).

Experimental findings from patent US4618605A, “Process for the production of β-elemonic acid and pharmaceutical preparations containing said acid” (priority 1983, dated 1986) are described below.

Like-named read-outs stand apart in the source and are kept apart here.

What is called ED50 is the dose at which the effect has come halfway, by size or by number of responders. On to `COc1ccc2c(c1)c(CC(=O)O)c(C)n2C(=O)c1ccc(Cl)cc1` [Indomethacin, reference compound], for which the ED30 in the data set with CVF paw edema was 4.58 mg/kg. Moreover, in the data set with adjuvant arthritis [1], the ED50 amounted to 0.26 mg/kg and the “antiphlogistic activity (in words)” value is “strongly active”. In addition, the “Threshold dose Acute stomach mucous tolerability” value in the data set on stomach mucosa was determined as 5.62 mg/kg. For the same compound, the LD50 in data set [2] (setting [5]) was 40 mg/kg. The selectivity ratio in data set [3] (setting [6]) is 8.73. Besides, the selectivity ratio in data set [3] (setting [7]) was 21.6.
For the compound `C[C@]12C=CC(=O)C=C1CC[C@@H]1[C@@H]2[C@@H](O)C[C@@]2(C)[C@H]1CC[C@]2(O)C(=O)CO` [Prednisolone, reference compound], in the data set with young rats (5 mg/kg intramuscularly), the “Blood picture Leucocytes” value is listed as “-”, the “Blood picture Lymphocytes” value was “-”, the Body weight development result was “-” and the Liver weights is 0. Besides, the Thymus weight entry with young rats (5 mg/kg intramuscularly) is reported as “---”. Besides, in the data set with young rats (2,5 mg/kg intramuscularly), the “Blood picture Leucocytes” value was 0, the “Blood picture Lymphocytes” value was “(-)”, the Body weight development result is recorded as “-” and the Liver weights is recorded as 0. Besides, in the data set on young rats (2,5 mg/kg intramuscularly), the Thymus weight entry is given as “---”.
Turning to `CC(C)=CCC[C@H](C(=O)O)[C@@H]1CC[C@]2(C)C3=C(CC[C@@]12C)[C@@]1(C)CCC(=O)C(C)(C)[C@@H]1CC3` [β-Elemonic acid, 13α, 14β, 17α, 20S,-3-Oxo-lanosta-8,24-dien-21-carboxylic acid], the “Inhibiting effect (%)” value is listed as -7% in the data set with carrageenin paw edema (1 mg/kg p.o.), -21% with carrageenin paw edema (10 mg/kg p.o.) and -33% with carrageenin paw edema (100 mg/kg p.o.). Further, the “Inhibition effect (%)” value in the data set with CVF paw edema (1 mg/kg p.o.) is reported as -24%; in the data set with CVF paw edema (10 mg/kg p.o.) it was -32%; in the data set with CVF paw edema (100 mg/kg p.o.) it was -49%. Also, the ED30 in the data set on CVF paw edema amounted to 3.98 mg/kg. The “inhibition values (%)” value in the data set on adjuvant arthritis [1] (14th day p.i., 1 mg/kg p.o.) is on record as -55%; with adjuvant arthritis [1] (14th day p.i., 10 mg/kg p.o.), -62%; with adjuvant arthritis [1] (14th day p.i., 100 mg/kg p.o.) it was -165%; in the data set with adjuvant arthritis [1] (17th day p.i., 1 mg/kg p.o.), -38%; with adjuvant arthritis [1] (17th day p.i., 10 mg/kg p.o.), -47%; with adjuvant arthritis [1] (17th day p.i., 100 mg/kg p.o.), -92%. The “inhibition values (%)” value is on record as “+36%” with adjuvant arthritis [4] (14th day p.i., 1 mg/kg p.o.); -13% in the data set on adjuvant arthritis [4] (14th day p.i., 10 mg/kg p.o.); -38% in the data set on adjuvant arthritis [4] (14th day p.i., 100 mg/kg p.o.); -31% in the data set on adjuvant arthritis [4] (17th day p.i., 1 mg/kg p.o.); -42% in the data set with adjuvant arthritis [4] (17th day p.i., 10 mg/kg p.o.); -81% in the data set on adjuvant arthritis [4] (17th day p.i., 100 mg/kg p.o.). Also, the ED50 in the data set on adjuvant arthritis [1] worked out at 4.64 mg/kg. In addition, the “inhibition values (in words)” value in the data set with adjuvant arthritis [4] (therapeutic application beginning ten days after induction) is given as “pronounced inhibition values”. In addition, the “Effect (ulcer induction)” value with stomach mucosa (10 mg/kg p.o.), with stomach mucosa (100 mg/kg p.o.) and in the data set with stomach mucosa (316 mg/kg p.o.) was 0 throughout. Moreover, the “Threshold dose Acute stomach mucous tolerability” value in the data set with stomach mucosa turned out to be 316.00 mg/kg. Further, the LD50 in data set [2] (setting [5]) turned out to be 4640 mg/kg; in [2] (po, peroral, read-out: Acute peroral toxicity), 4.64 mg/kg. In addition, the aggravating side-effects entry in the data set on rats is reported as “no occurrences of aggravating side-effects”. Also, the “Blood picture Leucocytes” value in the data set on young rats (100 mg/kg orally) and in the data set with young rats (316 mg/kg orally) was 0 in each case. Also, the “Blood picture Lymphocytes” value in the data set on young rats (100 mg/kg orally) and in the data set on young rats (316 mg/kg orally) was 0 throughout. The Body weight development result in the data set with young rats (100 mg/kg orally) and in the data set on young rats (316 mg/kg orally) was “(-)” throughout. In addition, the Liver weights in the data set on young rats (100 mg/kg orally) and in the data set with young rats (316 mg/kg orally) was 0 throughout. For the same compound, the values for the Thymus weight in the data set with young rats (100 mg/kg orally) and in the data set on young rats (316 mg/kg orally) were 0 and “(-)”, respectively. For the same compound, in the data set on adrenal gland, the adrenal gland weights result is listed as “inside the normal limits”. The selectivity ratio in data set [3] (setting [6]) worked out at 1160; in data set [3] (setting [7]), 68. Also, the “Therapeutic indices 1 and 2 compared with comparison substances (in words)” value in [3] (vs phenylbutazone and indomethacin) is “several times higher”.
Consider `CCCCC1C(=O)N(c2ccccc2)N(c2ccccc2)C1=O` [Phenylbutazone], for which the “Inhibiting effect (%)” value in the data set on carrageenin paw edema (100 mg/kg p.o.) is recorded as -41%. For the same compound, in the data set with carrageenin paw edema (carrageenin paw edema test in rats), the “reduction of edema (in words)” value was “a reduction of edema only at a fairly high dosage level”. Also, the “Inhibition effect (%)” value with CVF paw edema (1 mg/kg p.o.) is listed as “+10%”; in the data set with CVF paw edema (10 mg/kg p.o.), -28%; in the data set on CVF paw edema (100 mg/kg p.o.) it was -34%. The ED30 in the data set with CVF paw edema stood at 37.7 mg/kg. The “inhibition of CVF edema (in words)” value in the data set with CVF paw edema (compared with β-elemonic acid) is “weaker inhibition values”. Further, the “inhibition values (%)” value was -42% with adjuvant arthritis [1] (14th day p.i., 10 mg/kg p.o.); -57% in the data set with adjuvant arthritis [1] (14th day p.i., 31,6 mg/kg p.o.); -58% with adjuvant arthritis [1] (14th day p.i., 82,5 mg/kg p.o.); -31% in the data set with adjuvant arthritis [1] (17th day p.i., 10 mg/kg p.o.); -51% with adjuvant arthritis [1] (17th day p.i., 31,6 mg/kg p.o.); -43% in the data set with adjuvant arthritis [1] (17th day p.i., 82,5 mg/kg p.o.). Besides, the ED50 with adjuvant arthritis [1] (p.o., regression line) amounted to 47.5 mg/kg. The “antiphlogistic activity (in words)” value in the data set with adjuvant arthritis [1] is listed as “weakly active”. The LD50 in data set [2] (oral, comparison, read-out: LD50) is 465 mg/kg.
